These results are taken from ChEMBL document CHEMBL1152074, “Synthesis and antimalarial evaluation of 2,3,5-trioxabicyclo[2.2.2]octanes, models for the putative pharmacophore of qinghaosu (artemisinin)” (Bioorg Med Chem Lett, 1992).

Values after ≈ are worked out from the molar mass of the structure shown.

Holding throughout (type): functional, organism-based
Experiment [1] concerns Plasmodium falciparum. Description: Inhibitory concentration (IC50) against chloroquine-sensitive falciparum sierra leone […] in human malaria; 10000-46608.
The test system of experiment [2] is Plasmodium falciparum. Description: Inhibitory concentration IC50 against chloroquine-resistant falciparum indochina(W-2) malaria in humans; 7079-48759.
In experiment [3] the test system is Plasmodium falciparum. The experiment in a line: Inhibitory concentration (IC50) against chloroquine-resistant falciparum Indochina W2 in human malaria.
In experiment [4] the test system is Plasmodium falciparum. Description: Inhibitory concentration (IC50) against chloroquine-sensitive falciparum sierra leone […] in human malaria.
In experiment [5] the test system is Plasmodium falciparum. Description: Inhibitory concentration (IC50) against chloroquine-resistant falciparum indochina W-2 in human malaria; 60-50000.
Experiment [6] has as its system Plasmodium falciparum. Description: Inhibitory concentration (IC50) against chloroquine-sensitive falciparum sierra leone […] in human malaria; 979-50000.
Experiment [7] concerns Plasmodium falciparum. Description: Inhibitory concentration (IC50) against chloroquine-sensitive falciparum sierra leone […] in human malaria; 9569-21648.
Experiment [8] deals with Plasmodium falciparum. Description: Inhibitory concentration IC50 against chloroquine-resistant falciparum W-2 indochina human malaria; 8000-18088.
[9] abbreviates: Plasmodium falciparum, read-out: IC50.

Broadly, the IC50 is the concentration at which inhibition is half-maximal. Turning to `CO[C@]1(C)CC[C@@H](OO)CO1`, the IC50 in experiment [1] is 10 µg/mL (≈ 61.7 µM); in experiment [2], 7.08 µg/mL (≈ 43.6 µM).
As to `CC12CCC(CO1)OO2` (stereo unspecified), the IC50 in experiment [3] is > 100 µg/mL; in experiment [4], 50 µg/mL (≈ 384 µM).
`C1CC2OCC1OO2` (stereo unspecified): the IC50 was determined as 0.06 µg/mL (≈ 0.517 µM) in experiment [5] and 0.979 µg/mL (≈ 8.43 µM) in experiment [6].
Take `COC1CC[C@@H]([C@H](C)O)OO1` (stereo partly specified): the values for the IC50 in experiment [3] (setting [9]) and in experiment [4] were 12.3 µg/mL (≈ 75.7 µM) and 7.35 µg/mL (≈ 45.3 µM), respectively.
The like results for `COC1CCC(CO)OO1` (stereo unspecified) were, in that order, 0.454 µg/mL (≈ 3.06 µM) and 0.531 µg/mL (≈ 3.58 µM).
With `C[C@@H]1OC2CCC1OO2` (stereo partly specified), the half-inhibitory concentration (IC50) in experiment [3] (setting [9]) came to 28.8 µg/mL (≈ 222 µM); in experiment [4] it was 28.5 µg/mL (≈ 219 µM).
The like results for `C[C@H]1OC2CCC1OO2` (stereo partly specified) were, in that order, 13.1 µg/mL (≈ 101 µM) and 8.46 µg/mL (≈ 65 µM).
The like results for `COC1CCC(OO)CO1` (stereo unspecified) were, in that order, 1.05 µg/mL (≈ 7.06 µM) and 0.472 µg/mL (≈ 3.19 µM).
With `CO[C@H]1CC[C@@H](OO)[C@@H](C)O1`, the half-maximal inhibitory concentration (IC50) in experiment [7] is 9.57 µg/mL (≈ 59 µM); in experiment [8] it was 8 µg/mL (≈ 49.3 µM).
Consider `CO[C@H]1CC[C@H](OO)[C@@H](C)O1`, for which the figures for the IC50 in experiment [3] (setting [9]) and in experiment [4] were 3.44 µg/mL (≈ 21.2 µM) and 1.01 µg/mL (≈ 6.2 µM), respectively.
In experiment [4], `C[C@@H]1CC[C@H]2[C@@H](C)C(=O)O[C@@H]3O[C@@]4(C)CC[C@@H]1[C@]32OO4` [ARTEMISININ] showed an IC50 of 0.00202 µg/mL (≈ 0.00715 µM).
